Test results from ChEMBL document CHEMBL3431459, “Roche carnitine palmitoyltransferase modulator screening data (supplementary data associated with the publication CHEMBL2216752)”.
Converted amounts (≈) assume the structure as drawn.

Assays:
[1] = SUPPLEMENTARY: Lipophilicity (log D) Determination by high-throughput shake-flask; type: physicochemical; conditions: octanol/water
[2] = biological target: T1, Carnitine O-palmitoyltransferase 2, mitochondrial (Rattus norvegicus, UniProt P18886); test: (§1) SUPPLEMENTARY: Inhibition of Carnitine palmitoyltransferase 2
T1 sequence (P18886 whole entry): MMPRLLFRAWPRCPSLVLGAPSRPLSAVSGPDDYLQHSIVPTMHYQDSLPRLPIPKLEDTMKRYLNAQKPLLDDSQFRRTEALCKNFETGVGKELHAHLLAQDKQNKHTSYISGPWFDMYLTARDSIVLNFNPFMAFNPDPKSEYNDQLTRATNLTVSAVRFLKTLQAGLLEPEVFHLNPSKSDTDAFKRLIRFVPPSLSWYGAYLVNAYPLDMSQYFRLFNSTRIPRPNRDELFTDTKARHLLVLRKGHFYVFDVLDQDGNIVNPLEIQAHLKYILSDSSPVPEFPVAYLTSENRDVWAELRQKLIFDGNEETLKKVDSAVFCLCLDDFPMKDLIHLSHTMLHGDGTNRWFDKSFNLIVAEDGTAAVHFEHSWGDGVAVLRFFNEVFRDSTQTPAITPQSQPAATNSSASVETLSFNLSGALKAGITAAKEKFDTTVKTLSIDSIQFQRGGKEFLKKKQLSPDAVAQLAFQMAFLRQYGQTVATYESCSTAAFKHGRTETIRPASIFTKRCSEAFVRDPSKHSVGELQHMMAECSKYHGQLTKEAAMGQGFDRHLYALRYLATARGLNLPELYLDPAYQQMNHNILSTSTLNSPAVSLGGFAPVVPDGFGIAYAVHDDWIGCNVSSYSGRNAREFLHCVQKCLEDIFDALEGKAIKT

[3] = biological target: T2, Carnitine O-palmitoyltransferase 2, mitochondrial (Homo sapiens, UniProt P23786); test: as §1
T2 sequence (P23786 whole entry): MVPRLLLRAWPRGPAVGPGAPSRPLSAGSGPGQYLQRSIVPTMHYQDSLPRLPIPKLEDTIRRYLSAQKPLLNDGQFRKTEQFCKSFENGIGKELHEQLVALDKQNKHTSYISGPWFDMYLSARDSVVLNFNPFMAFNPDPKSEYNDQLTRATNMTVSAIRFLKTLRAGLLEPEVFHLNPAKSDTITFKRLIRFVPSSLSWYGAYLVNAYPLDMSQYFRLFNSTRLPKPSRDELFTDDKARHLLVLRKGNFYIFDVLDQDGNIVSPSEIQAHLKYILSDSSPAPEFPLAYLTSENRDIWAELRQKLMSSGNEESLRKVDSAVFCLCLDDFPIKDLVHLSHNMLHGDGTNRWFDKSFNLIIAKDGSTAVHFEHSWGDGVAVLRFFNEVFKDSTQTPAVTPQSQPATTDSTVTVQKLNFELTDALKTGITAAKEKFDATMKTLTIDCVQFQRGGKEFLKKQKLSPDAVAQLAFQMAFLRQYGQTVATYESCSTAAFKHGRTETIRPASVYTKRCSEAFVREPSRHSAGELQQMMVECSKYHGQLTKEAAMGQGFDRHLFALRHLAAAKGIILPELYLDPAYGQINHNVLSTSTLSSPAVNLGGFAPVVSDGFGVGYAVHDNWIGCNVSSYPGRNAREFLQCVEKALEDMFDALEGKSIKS

[4] = SUPPLEMENTARY: Lyophilisation Solubility Assay (LYSA); type: physicochemical; conditions: read-out: Kinetic_solubility
[5] = biological target: T3, Carnitine O-palmitoyltransferase 1, liver isoform (Rattus norvegicus, UniProt P32198); test: (§2) SUPPLEMENTARY: Inhibition of Carnitine palmitoyltransferase 1, liver isoform
T3 sequence (P32198 whole entry): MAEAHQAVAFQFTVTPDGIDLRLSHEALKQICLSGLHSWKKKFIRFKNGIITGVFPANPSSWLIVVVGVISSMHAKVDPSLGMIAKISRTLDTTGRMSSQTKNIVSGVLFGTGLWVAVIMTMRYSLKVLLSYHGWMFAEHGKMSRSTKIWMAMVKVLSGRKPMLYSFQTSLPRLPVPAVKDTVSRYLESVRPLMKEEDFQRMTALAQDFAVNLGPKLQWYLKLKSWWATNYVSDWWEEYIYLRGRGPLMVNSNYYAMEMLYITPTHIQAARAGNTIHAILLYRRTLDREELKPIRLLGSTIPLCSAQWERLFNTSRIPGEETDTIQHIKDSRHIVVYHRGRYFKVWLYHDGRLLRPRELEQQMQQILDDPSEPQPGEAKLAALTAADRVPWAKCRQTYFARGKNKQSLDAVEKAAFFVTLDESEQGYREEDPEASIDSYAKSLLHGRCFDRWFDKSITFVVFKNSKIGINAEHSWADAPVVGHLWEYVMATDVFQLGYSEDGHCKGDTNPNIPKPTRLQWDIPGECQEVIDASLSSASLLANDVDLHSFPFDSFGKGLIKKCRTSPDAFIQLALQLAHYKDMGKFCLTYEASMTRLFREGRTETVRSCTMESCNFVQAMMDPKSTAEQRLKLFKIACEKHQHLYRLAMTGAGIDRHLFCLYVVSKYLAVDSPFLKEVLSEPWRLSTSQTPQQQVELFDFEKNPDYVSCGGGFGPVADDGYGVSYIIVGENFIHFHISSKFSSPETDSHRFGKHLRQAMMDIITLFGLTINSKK

[6] = biological target: T4, Carnitine O-palmitoyltransferase 1, liver isoform (Homo sapiens, UniProt P50416); test: as §2
T4 sequence (P50416 whole entry): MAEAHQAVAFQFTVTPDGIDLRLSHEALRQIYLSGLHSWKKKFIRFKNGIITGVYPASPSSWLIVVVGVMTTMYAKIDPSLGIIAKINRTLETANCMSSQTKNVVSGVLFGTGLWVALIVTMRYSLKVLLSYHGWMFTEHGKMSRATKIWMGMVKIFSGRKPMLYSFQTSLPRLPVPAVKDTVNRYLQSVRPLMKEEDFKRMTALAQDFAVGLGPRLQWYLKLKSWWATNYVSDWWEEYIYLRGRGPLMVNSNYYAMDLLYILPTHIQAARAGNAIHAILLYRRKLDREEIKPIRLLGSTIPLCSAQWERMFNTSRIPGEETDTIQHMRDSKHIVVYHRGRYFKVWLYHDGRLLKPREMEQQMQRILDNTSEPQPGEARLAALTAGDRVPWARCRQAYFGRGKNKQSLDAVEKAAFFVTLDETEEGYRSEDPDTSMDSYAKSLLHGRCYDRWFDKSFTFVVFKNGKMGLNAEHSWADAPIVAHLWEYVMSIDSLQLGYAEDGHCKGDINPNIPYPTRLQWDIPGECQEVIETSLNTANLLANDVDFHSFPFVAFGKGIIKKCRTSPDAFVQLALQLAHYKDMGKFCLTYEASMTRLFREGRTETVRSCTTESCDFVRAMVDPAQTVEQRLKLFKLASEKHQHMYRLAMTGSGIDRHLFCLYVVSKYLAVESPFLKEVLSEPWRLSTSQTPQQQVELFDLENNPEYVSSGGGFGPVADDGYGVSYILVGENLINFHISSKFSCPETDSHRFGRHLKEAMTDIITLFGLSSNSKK

[7] = SUPPLEMENTARY: PAMPA permeability assay; type: physicochemical; conditions: read-out: Permeability
[8] = biological target: T5, Carnitine O-palmitoyltransferase 1, muscle isoform (Homo sapiens, UniProt Q92523); test: SUPPLEMENTARY: Inhibition of Carnitine palmitoyltransferase 1, muscle isoform; design: species or system Muscle tissue
T5 sequence (Q92523 whole entry): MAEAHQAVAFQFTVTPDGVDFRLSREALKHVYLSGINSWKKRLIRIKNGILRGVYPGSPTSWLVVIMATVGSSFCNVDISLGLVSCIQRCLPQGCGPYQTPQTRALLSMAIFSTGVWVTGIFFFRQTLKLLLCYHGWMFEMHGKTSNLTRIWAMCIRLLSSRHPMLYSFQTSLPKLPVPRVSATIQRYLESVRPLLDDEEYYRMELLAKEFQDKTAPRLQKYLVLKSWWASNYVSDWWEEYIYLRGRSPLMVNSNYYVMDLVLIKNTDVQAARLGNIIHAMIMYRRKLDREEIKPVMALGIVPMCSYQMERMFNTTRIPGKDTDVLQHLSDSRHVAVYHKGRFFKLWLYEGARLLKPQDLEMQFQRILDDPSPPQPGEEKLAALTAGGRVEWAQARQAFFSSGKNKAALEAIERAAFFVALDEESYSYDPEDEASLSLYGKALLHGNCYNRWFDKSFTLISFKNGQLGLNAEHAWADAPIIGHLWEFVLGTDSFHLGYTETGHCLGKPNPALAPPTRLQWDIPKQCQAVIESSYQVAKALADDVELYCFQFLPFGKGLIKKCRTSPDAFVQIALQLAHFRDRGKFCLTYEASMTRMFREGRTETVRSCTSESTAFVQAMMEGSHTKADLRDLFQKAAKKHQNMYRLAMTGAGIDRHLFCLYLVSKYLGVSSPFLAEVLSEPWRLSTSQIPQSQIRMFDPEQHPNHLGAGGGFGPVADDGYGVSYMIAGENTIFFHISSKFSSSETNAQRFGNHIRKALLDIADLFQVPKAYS

In the case of `CCN(CC)C(=O)c1ccc(-c2noc([C@H]3CCCCN3C(=O)COc3ccccc3)n2)cc1`, the logD [1] is reported as 3.3, the IC50 [2] is reported as 13.2 µM and the IC50 [3] is reported as 19.5 µM. For the same compound, the solubility kinetic [4] was 31 µg/mL (≈ 67 µM), the IC50 [5] was 1.04 µM and the IC50 [6] was 0.0402 µM. The Papp [7] was 1.49 ×10⁻⁶ cm/s and the IC50 [8] was > 100 µM.

With `NS(=O)(=O)c1ccc(-c2noc(C3C4CC4CN3C(=O)COc3ccccc3)n2)cc1` (centres undefined) the logD [1] was 2.04, the IC50 [2] was > 100 µM and the IC50 [3] was > 100 µM. For the same compound, the solubility kinetic [4] was 45 µg/mL (≈ 102 µM), the IC50 [5] was 0.0908 µM and the IC50 [6] was 0.11 µM. For the same compound, the Papp [7] was 5.17 ×10⁻⁶ cm/s and the IC50 [8] was > 100 µM.

In the case of `O=C(COc1ccccc1)N1CCCC[C@@H]1c1nc(-c2ccccc2F)n[nH]1`, the logD [1] is reported as 3.06, the IC50 [2] is reported as > 100 µM and the IC50 [3] is reported as 81.4 µM. It also gave a solubility kinetic [4] of 61.5 µg/mL (≈ 162 µM), an IC50 [5] of 0.187 µM and an IC50 [6] of 0.106 µM. For the same compound, the Papp [7] was 4.79 ×10⁻⁶ cm/s and the IC50 [8] was > 100 µM.

`COC[C@@H]1CCN(NC(=O)c2cccc(-c3n[nH]c([C@H]4CCCCN4C(=O)COc4ccccc4)n3)c2)C1` gave a logD [1] of 2.45, an IC50 [2] of 73.6 µM and an IC50 [3] of 74.3 µM. It also gave a solubility kinetic [4] of 229 µg/mL (≈ 442 µM), an IC50 [5] of 1.3 µM and an IC50 [6] of 0.159 µM. For the same compound, the Papp [7] was 3.31 ×10⁻⁶ cm/s and the IC50 [8] was > 100 µM.

With `O=C(COc1ccccc1)N1CCCC[C@@H]1c1noc(-c2ccc(-n3cncn3)cc2)n1` the logD [1] was 3.08, the IC50 [2] was > 100 µM and the IC50 [3] was 33.4 µM. It also gave a solubility kinetic [4] of 11 µg/mL (≈ 25.6 µM), an IC50 [5] of 0.0963 µM and an IC50 [6] of 0.0912 µM. The Papp [7] was 2.25 ×10⁻⁶ cm/s and the IC50 [8] was > 100 µM.

For `COc1ccc(Cl)cc1S(=O)(=O)N1COCc2ccc(C(=O)Nc3ccc(CC(=O)O)cc3)cc21`, the logD [1] was -0.23, the IC50 [2] was > 100 µM and the IC50 [3] was > 100 µM. The solubility kinetic [4] was 100 µg/mL (≈ 193 µM), the IC50 [5] was 0.483 µM and the IC50 [6] was 0.187 µM. The Papp [7] was 1.39 ×10⁻⁶ cm/s and the IC50 [8] was 3.28 µM.

For `CN(C)C(=O)c1ccc(-c2noc(C3C4CC4CN3C(=O)COc3ccccc3)n2)cc1` (centres undefined), the logD [1] was 2.17, the IC50 [2] was 57.1 µM and the IC50 [3] was 47.1 µM. For the same compound, the solubility kinetic [4] was 147 µg/mL (≈ 340 µM), the IC50 [5] was 1.09 µM and the IC50 [6] was 0.165 µM. The Papp [7] was 4.37 ×10⁻⁶ cm/s and the IC50 [8] was > 100 µM.

Work on `O=C1Cc2ccc(-c3n[nH]c([C@H]4CCCCN4C(=O)COc4ccccc4)n3)cc2N1` yielded a logD [1] of 2.35, an IC50 [2] of 42.9 µM and an IC50 [3] of 39.8 µM. The solubility kinetic [4] was 73 µg/mL (≈ 175 µM), the IC50 [5] was 1.15 µM and the IC50 [6] was 0.211 µM. The Papp [7] was 3.29 ×10⁻⁶ cm/s and the IC50 [8] was > 100 µM.
